Assay: Accelerated stability test (50° C.) with pH stability test of sucralose sample solution
Format: physicochemical
Details: for Days to pH Failure / Days to pH Failure (Final Product Moisture Content) / Days to pH Failure (Initial Moisture Content): 50° C.; for Days to pH Failure: WHIRLPAK polyethylene bags, failure = pH drop ≧1.0; for Initial pH: sample solution (5 g in 50 ml pH-adjusted water) at time zero; for Initial pH difference: sample solution vs pH-adjusted water at time zero; for stability at intermediate moisture contents compared with final moisture levels: crystallized with no pH control, intermediate moisture 3 to 5% vs final 0.05, 0.11, 0.21%; for Days to pH Failure (Final Product Moisture Content): final dried product; for Days to pH Failure (Final Product Moisture Content) / Days to pH Failure (Initial Moisture Content): Example 3; for Days to pH Failure (Initial Moisture Content): partially dried product at intermediate (initial) moisture content
Text: Label seven 6 oz. and seven 18 oz. WHIRLPAK® polyethylene bags with indelible marker for each batch being tested for stability. Accurately weigh 25 g±0.01 g of sucralose into each 6 oz. WHIRLPAK® polyethylene bag. Heat or impulse seal the 6 oz. bag to ensure air tightness. Cut off any excess polyethylene at the top of the bag above the seal. Place the 6 oz. sealed bag into the 18 oz. bag and heat or impulse seal the 18 oz. bag to ensure air tightness. Roll down the top of the 18 oz. bag above the seal and bend the metal ties to form hooks.
Place the prepared bags into an oven stabilized at 50° C.±0.5° C. by hanging them from racks by the bag hooks. The bags must be freely suspended and not touch anything. Record the time samples are placed into the oven.
The pH stability test is conducted on the sucralose at time zero (the day the samples are placed in the oven, before the sucralose is exposed to elevated temperature) and every 24 hours until the batch being tested fails the test.
Place approximately 100 ml of deionized water into a 150 ml beaker. Using 0.1 N hydrochloric acid and/or 0.1 N sodium hydroxide, adjust the pH of the water to be between 5.8 and 6.0. Record the pH reading.
Accurately weigh 5 g±0.001 g of the product to be tested and transfer it to a 50 ml volumetric flask. Dissolve and bring to the mark by adding pH-adjusted water. If the sample to be tested is one that has been exposed to heat, remove one bag of the batch being tested from the oven and allow it to cool to room temperature before opening and sampling.
Pour the solution into a 100 ml beaker containing a stir bar, and slowly stir the solution on a magnetic stirrer. Immerse the pH electrode in the sample, allow the pH reading to stabilize, and record the pH reading of the sample. If no pH drop is observed after all the bags have been tested, the experiment is void and the test must repeated with a larger number of bags.
Record (to one decimal place) the pH of both the pH-adjusted water used and the sample sucralose solution. Subtract the pH of the […]. Report the result as (−) for a pH drop and (+) for a pH gain, e.g.:
The sample fails the test if there is a pH drop of 1.0 pH unit or more. The pH stability of the batch is defined as the number of days until the pH drop between the sample solution and that of the pH adjusted water is ≧1.0.
Samples of sucralose were tested for stability using the above procedures, but using bags of different moisture permeability. All other experimental details were the same. The TYVEK®/polyethylene bags are permeable; the WHIRLPAK® bags are less permeable. The A8080 bag consists of aluminum foil laminated to low-density polyethylene, which makes it very impermeable to moisture.

[1] = Example 1, sodium acetate in mother liquor varied
[2] = (−) pH drop, (+) pH gain, Example 1
[3] = Example 2, pH at crystallizer varied

| Days to pH Failure [1] [Days] | Initial pH [1] | Initial pH difference [2] | Days to pH Failure [3] [Days] | Initial pH difference [3] | Days to pH Failure (Final Product Moisture Content) [Days] | Days to pH Failure (Initial Moisture Content) [Days] | Compound | stability at intermediate moisture contents compared with final moisture levels |
| --- | --- | --- | --- | --- | --- | --- | --- | --- |
|  |  |  | 5 | +0.10 | 5 | 7 | OC[C@H]1O[C@H](O[C@]2(CCl)O[C@H](CCl)[C@@H](O)[C@@H]2O)[C@H](O)[C@@H](O)[C@H]1Cl [Sample 35, 4,1′,6′-trichloro-4,1′,6′-trideoxy-galactosucrose] |  |
|  |  |  | 5 | +0.04 | 5 | 7 | OC[C@H]1O[C@H](O[C@]2(CCl)O[C@H](CCl)[C@@H](O)[C@@H]2O)[C@H](O)[C@@H](O)[C@H]1Cl [Sample 36, 4,1′,6′-trichloro-4,1′,6′-trideoxy-galactosucrose] |  |
|  |  |  | 5 | −0.06 | 5 | 21 | OC[C@H]1O[C@H](O[C@]2(CCl)O[C@H](CCl)[C@@H](O)[C@@H]2O)[C@H](O)[C@@H](O)[C@H]1Cl [Sample 37, 4,1′,6′-trichloro-4,1′,6′-trideoxy-galactosucrose] |  |
|  |  |  | 6 | +0.17 | 6 | 23 | OC[C@H]1O[C@H](O[C@]2(CCl)O[C@H](CCl)[C@@H](O)[C@@H]2O)[C@H](O)[C@@H](O)[C@H]1Cl [Sample 38, 4,1′,6′-trichloro-4,1′,6′-trideoxy-galactosucrose] |  |
|  |  |  | 7 | −0.02 | 7 | 13 | OC[C@H]1O[C@H](O[C@]2(CCl)O[C@H](CCl)[C@@H](O)[C@@H]2O)[C@H](O)[C@@H](O)[C@H]1Cl [Sample 39, 4,1′,6′-trichloro-4,1′,6′-trideoxy-galactosucrose] |  |
|  |  |  | 7 | +0.40 | 7 | 13 | OC[C@H]1O[C@H](O[C@]2(CCl)O[C@H](CCl)[C@@H](O)[C@@H]2O)[C@H](O)[C@@H](O)[C@H]1Cl [Sample 40, 4,1′,6′-trichloro-4,1′,6′-trideoxy-galactosucrose] |  |
|  |  |  | 5 | +0.40 | 5 | 12 | OC[C@H]1O[C@H](O[C@]2(CCl)O[C@H](CCl)[C@@H](O)[C@@H]2O)[C@H](O)[C@@H](O)[C@H]1Cl [Sample 41, 4,1′,6′-trichloro-4,1′,6′-trideoxy-galactosucrose] |  |
|  |  |  | 5 | +0.17 | 5 | 9 | OC[C@H]1O[C@H](O[C@]2(CCl)O[C@H](CCl)[C@@H](O)[C@@H]2O)[C@H](O)[C@@H](O)[C@H]1Cl [Sample 42, 4,1′,6′-trichloro-4,1′,6′-trideoxy-galactosucrose] |  |
|  |  |  | 5 | +0.29 | 5 | 8 | OC[C@H]1O[C@H](O[C@]2(CCl)O[C@H](CCl)[C@@H](O)[C@@H]2O)[C@H](O)[C@@H](O)[C@H]1Cl [Sample 43, 4,1′,6′-trichloro-4,1′,6′-trideoxy-galactosucrose] |  |
|  |  |  | 6 | −0.18 |  |  | OC[C@H]1O[C@H](O[C@]2(CCl)O[C@H](CCl)[C@@H](O)[C@@H]2O)[C@H](O)[C@@H](O)[C@H]1Cl [Sample 44, 4,1′,6′-trichloro-4,1′,6′-trideoxy-galactosucrose] |  |
|  |  |  | 7 | +0.17 |  |  | OC[C@H]1O[C@H](O[C@]2(CCl)O[C@H](CCl)[C@@H](O)[C@@H]2O)[C@H](O)[C@@H](O)[C@H]1Cl [Sample 45, 4,1′,6′-trichloro-4,1′,6′-trideoxy-galactosucrose] |  |

Second part, the compound before the results:

| Compound | Days to pH Failure [1] [Days] | Initial pH [1] | Initial pH difference [2] | Days to pH Failure [3] [Days] | Initial pH difference [3] | Days to pH Failure (Final Product Moisture Content) [Days] | Days to pH Failure (Initial Moisture Content) [Days] | stability at intermediate moisture contents compared with final moisture levels |
| --- | --- | --- | --- | --- | --- | --- | --- | --- |
| OC[C@H]1O[C@H](O[C@]2(CCl)O[C@H](CCl)[C@@H](O)[C@@H]2O)[C@H](O)[C@@H](O)[C@H]1Cl [Sample 26, 4,1′,6′-trichloro-4,1′,6′-trideoxy-galactosucrose] | 6 | 6.06 | +0.10 |  |  |  |  |  |
| OC[C@H]1O[C@H](O[C@]2(CCl)O[C@H](CCl)[C@@H](O)[C@@H]2O)[C@H](O)[C@@H](O)[C@H]1Cl [Sample 27, 4,1′,6′-trichloro-4,1′,6′-trideoxy-galactosucrose] | 6 | 5.99 | +0.03 |  |  |  |  |  |
| OC[C@H]1O[C@H](O[C@]2(CCl)O[C@H](CCl)[C@@H](O)[C@@H]2O)[C@H](O)[C@@H](O)[C@H]1Cl [Sample 28, 4,1′,6′-trichloro-4,1′,6′-trideoxy-galactosucrose] | 6 | 6.00 | +0.02 |  |  |  |  |  |
| OC[C@H]1O[C@H](O[C@]2(CCl)O[C@H](CCl)[C@@H](O)[C@@H]2O)[C@H](O)[C@@H](O)[C@H]1Cl [Sample 29, 4,1′,6′-trichloro-4,1′,6′-trideoxy-galactosucrose] | 6 | 6.09 | +0.12 |  |  |  |  |  |
| OC[C@H]1O[C@H](O[C@]2(CCl)O[C@H](CCl)[C@@H](O)[C@@H]2O)[C@H](O)[C@@H](O)[C@H]1Cl [Sample 30, 4,1′,6′-trichloro-4,1′,6′-trideoxy-galactosucrose] | 5 | 5.95 | −0.02 |  |  |  |  |  |
| OC[C@H]1O[C@H](O[C@]2(CCl)O[C@H](CCl)[C@@H](O)[C@@H]2O)[C@H](O)[C@@H](O)[C@H]1Cl [Sample 31, 4,1′,6′-trichloro-4,1′,6′-trideoxy-galactosucrose] | 5 | 6.03 | +0.06 |  |  |  |  |  |
| OC[C@H]1O[C@H](O[C@]2(CCl)O[C@H](CCl)[C@@H](O)[C@@H]2O)[C@H](O)[C@@H](O)[C@H]1Cl [Sample 32, 4,1′,6′-trichloro-4,1′,6′-trideoxy-galactosucrose] |  |  |  | 3 | −0.90 |  |  | less stable at intermediate moisture contents (3 to 5%) than they were at their final moisture levels |
| OC[C@H]1O[C@H](O[C@]2(CCl)O[C@H](CCl)[C@@H](O)[C@@H]2O)[C@H](O)[C@@H](O)[C@H]1Cl [Sample 33, 4,1′,6′-trichloro-4,1′,6′-trideoxy-galactosucrose] |  |  |  | 4 | −0.94 |  |  | less stable at intermediate moisture contents (3 to 5%) than they were at their final moisture levels |
| OC[C@H]1O[C@H](O[C@]2(CCl)O[C@H](CCl)[C@@H](O)[C@@H]2O)[C@H](O)[C@@H](O)[C@H]1Cl [Sample 34, 4,1′,6′-trichloro-4,1′,6′-trideoxy-galactosucrose] |  |  |  | 3 | −1.03 |  |  | less stable at intermediate moisture contents (3 to 5%) than they were at their final moisture levels |
